Measurements taken from paper PMC9839384 (Slas Discovery, 2023).

How the values were obtained:
SARS-CoV-2 3CLpro = SARS-CoV-2 3CLpro (Severe acute respiratory syndrome coronavirus 2, UniProt P0DTD1); assay type: cell-based
[1] = test system: SARS-CoV-2 3CLpro-HA, RLuc, FLuc in HEK293T cells; assay type: cell-based; conditions: actin as control
3CLpro = 3CLpro (Severe acute respiratory syndrome coronavirus 2, UniProt P0DTD1); assay: 3CLpro biochemical inhibition assay; set-up: species or system SARS-CoV-2
293T cells = conditions: initial screening

Structure (SMILES) | inhibition against viral proteases, in words (SARS-CoV-2 3CLpro) | protein expression by western blot [1] | potency in the enzymatic assay, in words (3CLpro) | Emax (3CLpro; Supplementary Fig. 2, panel D) | cytotoxicity, in words (293T cells)
CCN1CCN(Cc2ccc(NC(=O)Nc3ccc(Oc4cc(NC)ncn4)cc3)cc2C(F)(F)F)CC1 [AST-487] | some selective SARS 3CLpro inhibition but only at the highest concentration tested | – | – | – | –
CC(C)C[C@H](NC(=O)[C@H](CCc1ccccc1)NC(=O)CN1CCOCC1)C(=O)N[C@@H](Cc1ccccc1)C(=O)N[C@@H](CC(C)C)C(=O)[C@@]1(C)CO1 [Carfilzomib] | inhibited all the proteases tested | decrease in all exogenously expressed constructs | – | – | –
O=C(/C=C/c1ccc(Cl)c(Cl)c1)Nc1ccccc1C(=O)O [SR-32229] | – | – | low-µM affinity | ~100 % of tranilast | –
COc1ccc(/C=C/C(=O)Nc2ccccc2C(=O)O)cc1OC [Tranilast, (E)-2-(3-(3,4-dimethoxyphenyl)acrylamido)benzoic acid] | SARS 3CLpro specific inhibition | – | – | – | nontoxic
